Measurements: US9187524B2, “Broad spectrum antibiotic arylomycin analogs” (The Scripps Research Institute, priority 2010, dated 2015)
≈ marks a conversion by molar mass, not a printed value. Like-named read-outs stand apart in the source and are kept apart here.

Key:
R. opacus = assay: microbe, parasite or virus in culture; type: cell-based; conditions: Rhodococcus opacus
R. equi = assay: microbe, parasite or virus in culture; type: cell-based; conditions: Rhodococcus (subgen. Prescottella) equi; Table 4
[1] = target: T1, truncated wild type E. coli SPase (Escherichia coli, UniProt P00803); assay: biochemical; type: binding
T1 construct: a truncated wild type E. coli SPase that lacks the N-terminal membrane helices; made in house; host or cells: E. coli BL21(DE3)
T1 sequence (P00803 76-324, looked up, natural form): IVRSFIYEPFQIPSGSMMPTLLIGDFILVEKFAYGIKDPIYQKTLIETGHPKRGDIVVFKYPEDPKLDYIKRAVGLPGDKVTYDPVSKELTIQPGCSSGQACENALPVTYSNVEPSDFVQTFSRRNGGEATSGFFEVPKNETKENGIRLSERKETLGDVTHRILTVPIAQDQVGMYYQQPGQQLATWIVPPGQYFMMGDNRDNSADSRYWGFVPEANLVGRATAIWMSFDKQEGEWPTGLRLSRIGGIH

wild type S. aureus 8325 = assay: microbe, parasite or virus in culture; type: cell-based, Staphylococcus aureus; conditions: for MIC: Staphylococcus aureus
C. efficiens = assay: microbe, parasite or virus in culture; type: cell-based; conditions: Corynebacterium efficiens
[2] = test system: E. coli and P. aeruginosa serine mutants; assay: MIC after permeabilizing with polymyxin B nonapeptide; type: cell-based
Chlamydia trachomatis = assay: microbe, parasite or virus in culture; type: cell-based
wild type E. coli MG1655 = assay: microbe, parasite or virus in culture; type: cell-based, Escherichia coli; conditions: for MIC: Escherichia coli
[3] = test system: P. aeruginosa PAS2006 (SPase P84S); assay: microbe, parasite or virus in culture; type: cell-based; conditions: Pseudomonas aeruginosa, read-out: MIC, P. aeruginosa PAS2006
S. pyogenes = assay: microbe, parasite or virus in culture; type: cell-based, Streptococcus pyogenes; conditions: for MIC: Streptococcus pyogenes
[4] = test system: wild type P. aeruginosa PAO1; assay: microbe, parasite or virus in culture; type: cell-based, Pseudomonas aeruginosa; conditions: for MIC: Pseudomonas aeruginosa
[5] = test system: lepB(P29S) S. aureus 8325; assay: microbe, parasite or virus in culture; type: cell-based, Staphylococcus aureus; conditions: for MIC: Staphylococcus aureus
Prevotella copris = assay: microbe, parasite or virus in culture; type: cell-based; conditions: Table 13
[6] = test system: wild type S. epidermidis RP62A; assay: microbe, parasite or virus in culture; type: cell-based, Staphylococcus epidermidis; conditions: Staphylococcus epidermidis
[7] = Table 2B, SPase with resistance-conferring Pro

CCCCCCCCCCCCCCCC(=O)N(C)[C@H](CO)C(=O)N[C@H](C)C(=O)NCC(=O)N(C)[C@@H]1C(=O)N[C@@H](C)C(=O)N[C@H](C(=O)O)Cc2ccc(O)c(c2)-c2cc1ccc2O [Arylomycin C16]
MIC (R. opacus; Table 4, read-out: MIC, R. opacus): 1 µg/mL (≈ 1.13 µM)
MIC (R. opacus; Table 13, […], read-out: MIC, Rhodococcus opacus): 2 µg/mL (≈ 2.27 µM)
MIC (R. equi): 16 µg/mL (≈ 18.2 µM)
Kd [1]: 979 ± 69 nM
MIC (wild type S. aureus 8325; read-out: MIC, Resistant Sa): > 64 µg/mL
MIC (wild type S. aureus 8325; Table 11, […], read-out: MIC, S. aureus NTCT 8325): > 128 µg/mL
MIC, Resistant Sa (wild type S. aureus 8325; [7]): >64 µg/mL
MIC (C. efficiens; Table 4, read-out: MIC, C. efficiens): 16 µg/mL (≈ 18.2 µM)
MIC (C. efficiens; Table 13, […], read-out: MIC, Corynebacterium efficiens): > 64 µg/mL
MIC (C. efficiens; text b755, read-out: MIC, Corynebacterium efficiens): 16 µg/mL (≈ 18.2 µM)
decrease of MIC on permeabilizing with polymyxin B nonapeptide [2]: ≤ 4 fold
MIC (Chlamydia trachomatis; Table 13, […], read-out: MIC, Chlamydia trachomatis): 6 µg/mL (≈ 6.81 µM)
MIC (Chlamydia trachomatis; eradicated from human HeLa 229 cells, read-out: MIC, C. trachomatis): 6 µg/mL (≈ 6.81 µM)
MIC (wild type E. coli MG1655; MG1655, read-out: MIC, Resistant Ec): > 64 µg/mL
MIC (wild type E. coli MG1655; MG1655, Table 11, […], read-out: MIC, E. coli MG1655): > 128 µg/mL
MIC (wild type E. coli MG1655; MG1655, Table 13, […], read-out: MIC, Escherichia coli): > 128 µg/mL
MIC (wild type E. coli MG1655; MG1655, read-out: MIC, E. coli): > 64 µg/mL
MIC, Resistant Ec (wild type E. coli MG1655; [7]): >64 µg/mL
MIC [3]: 8 µg/mL (≈ 9.08 µM)
MIC (S. pyogenes; Table 4, read-out: MIC, S. pyogenes): 8 µg/mL (≈ 9.08 µM)
MIC (S. pyogenes; Table 13, […], read-out: MIC, Streptococcus pyogenes): 16 µg/mL (≈ 18.2 µM)
MIC, S. pyogenes (S. pyogenes; Table 14): 8 µg/mL (≈ 9.08 µM)
MIC ([4]; PAO1, read-out: MIC, Resistant Pa): > 64 µg/mL
MIC ([4]; PAO1, Table 11, […], read-out: MIC, P. aeruginosa PAO1): > 128 µg/mL
MIC ([4]; PAO1, Table 13, […], read-out: MIC, Pseudomonas aeruginosa): > 128 µg/mL
MIC, Resistant Pa [4, 7]: >64 µg/mL
MIC ([5]; read-out: MIC, S. aureus P29S): 8 µg/mL (≈ 9.08 µM)
MIC ([5]; read-out: MIC, S. aureus PAS8001): 2 µg/mL (≈ 2.27 µM)
MIC ([5]; read-out: MIC, Sensitive Sa): 2 µg/mL (≈ 2.27 µM)
MIC, Sensitive Sa ([5]; Table 2B, SPase without resistance-conferring Pro): 2 µg/mL (≈ 2.27 µM)
MIC (Prevotella copris): > 16 µg/mL
MIC ([6]; Table 11, […], read-out: MIC, S. epidermidis RP62A): 0.25 µg/mL (≈ 0.284 µM)
MIC ([6]; Table 13, […], read-out: MIC, Staphylococcus epidermidis): 0.25 µg/mL (≈ 0.284 µM)
MIC ([6]; read-out: MIC, S. epidermidis): 0.25 µg/mL (≈ 0.284 µM)
MIC ([6]; read-out: MIC, Sensitive Se): 0.5 µg/mL (≈ 0.567 µM)
